Results on two substances are retold here after publication PMC13233288, “Spider venom peptides Ht1a and Gg1a are toxic to honeybee parasite Varroa destructor by topical application” (npj Drug Discovery, 2026).

The test system of series [1] is hNaV1.2/NaV1.7. The series is described as follows: FLIPR Ca2+ fluorescence, veratridine-stimulated SH-SY5Y cells. The series is classed as cell-based, human. The conditions noted are these: 10 µM, added 5 min prior to veratridine (50 µM). How it is done:
To further test the selectivity of sHt1a and sGg1a, we examined their activity on hNaV1.2/NaV1.7 and hCaV2.2 channels, as well as the hα3β2/4 nicotinic acetylcholine receptor (nAchR), that are endogenously expressed in the neuroblastoma cell line SH-SY5Y using a high-throughput fluorescent assay as previously described. In brief, SH-SY5Y cells were seeded at a density of 40,000 cells/well in black-walled imaging plates (Corning, Lowell, MA, USA), then incubated for 48 h at 37 °C in a 5% humidified CO2 incubator. On the day of the assay, cells were loaded with Calcium 4 No-wash dye (Molecular Devices) by reconstituting the lyophilised dye in physiological salt solution (PSS in mM: 140 NaCl, 11.5 glucose, 5.9 KCl, 1.4 MgCl2, 1.2 NaH2PO4, 5 NaHCO3, 1.8 CaCl2, 10 HEPES, pH 7.4). Cells were incubated with the dye for 30 min at 37 °C in a 5% humidified CO2 incubator. Gg1a and Ht1a (10 µM) were added 5 min prior to stimulation with either veratridine (50 µM, hNaV1.2/NaV1.7 activator), nicotine (30 µM, hα3β2/4 nAchR activator) or KCl/CaCl2 (90 mM/5 mM, CaV1.3/2.2 activator) Fluorescent responses were recorded using a FLIPR^Penta fluorescent plate reader (Molecular Devices) with excitation at 470–495 nm and emission at 515–575 nm.

The subject of series [2] is honeybees. The series is described as follows: Topical application of synthetic peptides to honeybees (off-target). It counts as in vivo, Apis mellifera. The following applies: 25 μg peptide per honeybee (52-fold the mite dose) in 2% Silwet (v/v), n = 10 workers per group, 3 repeats, vs 2% Silwet control. From the text: If sprayed within a beehive, the varroacidal peptides would need to lethal for V. destructor, but safe for the honeybees. To evaluate potential off-target activities of the varroacidal peptides, we first needed to quantify how much larger the body surface of the bees is in comparison to the mites to understand how much more of the varroacidal peptides they would receive when being sprayed. Assuming an elliptical body shape of V. destructor, the surface area can be calculated according to the following formula: A=π×a×b×2
This also means that if we evenly applied these peptides via spraying at a certain concentration to both bees and mites, then the bees would receive a 34-fold higher peptide quantity due to their correspondingly higher surface area.
To allow for an additional safety margin, we topically applied 25 μg of each peptide per bee, which is 52-fold more than the 0.48 μg that each varroa mite received. The effects of sHt1a and sGg1a were tested on honeybees kept in plastic containers in the laboratory. The containers consisted of 250 ml polypropylene round cups with a 52 mm diameter hole cut into the bottom, covered with a 68 mm diameter circle of all-purpose cloth (brand: Peggy Perfect) hot glued to the edge of the hole on the outside of the cup (Supplementary Fig. 3). A 14 mm diameter hole was cut in the lid of the cup to insert a 5 mL syringe which served as feeder. The syringe was filled with 50% sucrose solution, and its tip was cut off to facilitate solution intake by the bees. Honeybee workers were obtained from a comb with emerging individuals placed in an incubator set to 34.5 °C and 70% humidity. The next day, groups of 10 freshly emerged workers were collected, introduced into the prepared cages and placed back in the incubator overnight. The next morning, peptide and control solutions to be tested were freshly prepared from the stock solutions stored at 4 °C. Then, the bees were sedated with CO2 gas until they stopped moving. Immediately after all bees stopped moving, the plastic lid was removed, and 15 µL of testing solution (containing 2% Silwet (v/v) or 25 μg of each peptide per bee) was topically applied on each of the 10 bees per group. The solution was applied on the abdomen or thorax, but not on the wings or head of the individuals. Following treatment, the worker bees were allowed to recover from the sedation and the containers with the bees were put back in the incubator, with mortality being manually checked daily. At the end of each experiment, all arthropods were euthanised by freezing at −20 °C.

Series [3] concerns hNaV1.4. Briefly: Automated whole-cell patch clamp, hNaV1.4 + β1 in HEK 293 cells. The series is classed as cell-based, human. The following applies: 3 μM, 50 ms pulse to −20 mV from −90 mV, ECS with 0.1% BSA, at least 2 min. How it is done: To examine for off-target activity on mammalian ion channels and receptors, we first tested the activity of sHt1a and Gg1a against human NaV channels. Whole-cell patch-clamp recordings were performed on Human Embryonic Kidney (HEK) 293 cells stably expressing human NaV1.4 or NaV1.5 in conjunction with the β1 subunit (SB Drug Discovery, Glasgow, United Kingdom) using a QPatch II automated electrophysiology platform (Sophion Bioscience, Ballerup, Denmark). Whole-cell currents were filtered at 8 kHz and acquired at 25 kHz. The linear leak was corrected by P/4 subtraction (leak potential −90 mV, leak sweep amplitude 10%). Series resistance across recorded cells ranged between 5 and 10 MΩ. The extracellular solution (ECS) consisted of (in mM): 145 NaCl, 4 KCl, 2 CaCl2, 1 MgCl2, 10 HEPES, and 10 glucose, adjusted to pH 7.4 with NaOH and to 305 mOsm/L with sucrose. The intracellular solution (ICS) consisted of (in mM): 140 CsF, 1 EGTA, 5 CsOH, 10 HEPES, and 10 NaCl, adjusted to pH 7.3 with CsOH and 320 mOsm/L with sucrose. Currents were elicited from a holding potential of −90 mV delivered with a 50 ms depolarising pulse to −20 mV every 20 s (0.05 Hz). Peptides were diluted in ECS containing 0.1% BSA and applied to cells for at least 2 min at the concentrations stated. Peak currents were normalised to the buffer control.

“Also recorded” adds a separate entry of the source. No end group written: not given here.

As for U1-macrothelitoxin-Gg1a, the “effect on neuronal NaV channels” value in series [1] was “inactive”; in series [1] (listed as sGg1a), “did not significantly affect”. In addition, the values for the honeybee mortality/survival entry in series [2] and in series [2] (listed as sGg1a) were “innocuous to honeybees” and “neither peptide caused more mortality; also recorded: did not alter honeybee survival”, respectively. Moreover, the “effect on hNaV1.4 currents” value in series [3] is “inactive”; in series [3] (listed as sGg1a), “did not significantly affect”.

Regarding “KYCAPRKAVCNTPADCCDKSSRCAYPNYGLGYYLDSEFFGKRKICSWRL (also: bicyclic or more (positions not given here)) [Ht1a, μ-gradutoxin-Ht1a]”, the “effect on neuronal NaV channels” value was “inactive” in series [1] and “did not significantly affect” in series [1] (listed as sHt1a). In addition, the figures for the honeybee mortality/survival result in series [2] and in series [2] (listed as sHt1a) were “innocuous to honeybees” and “neither peptide caused more mortality; also recorded: did not alter honeybee survival”, respectively. Moreover, the “effect on hNaV1.4 currents” value is “inactive” in series [3] and “did not significantly affect” in series [3] (listed as sHt1a).
